Experimental data reported in ChEMBL document CHEMBL4130416, “Glycine-replaced derivatives of [Pro3,DLeu9]TL, a temporin L analogue: Evaluation of antimicrobial, cytotoxic and hemolytic activities” (Eur J Med Chem, 2017).
Converted amounts (≈) assume the structure as drawn. The source made the active and inactive calls. The rule behind the calls is not given here. Where a SMILES comes first, the peptide text is derived from it. [ ]: non-standard residue; d: D form.

Key:
[1] = tested on: Escherichia coli; experiment: Antimicrobial activity against multisensitive Escherichia coli clinical isolate 1 after 18 to 20 hrs by microbroth dilution method; format: functional
[2] = tested on: Escherichia coli; experiment: Antimicrobial activity against Escherichia coli D21 after 18 to 20 hrs by microbroth dilution method; format: functional
[3] = Hemolytic activity against human erythrocytes at 50 uM after 40 mins relative to control; format: ADME, cell-based, Erythrocyte; conditions: read-out: Activity
[4] = tested on: Acinetobacter baumannii; experiment: Antimicrobial activity against Acinetobacter baumannii ATCC 19606 assessed as induction of membrane-perturbation at MIC measured every minute for 120 mins by SYTOX green fluorescence dye influx assay; format: functional, organism-based; conditions: ATCC 19606 = CIP 70.34 = JCM 6841
[5] = tested on: Staphylococcus aureus; experiment: Antimicrobial activity against multisensitive Staphylococcus aureus after 18 to 20 hrs by microbroth dilution method; format: functional
[6] = tested on: Staphylococcus aureus; experiment: Antimicrobial activity against methicillin resistant Staphylococcus aureus clinical isolate 1 after 18 to 20 hrs by microbroth dilution method; format: functional
[7] = Hemolytic activity against human erythrocytes at 25 uM after 40 mins relative to control; format: ADME, cell-based, Erythrocyte; conditions: read-out: Activity
[8] = tested on: Staphylococcus epidermidis; experiment: Antimicrobial activity against Staphylococcus epidermidis ATCC 12228 after 18 to 20 hrs by microbroth dilution method; format: functional
[9] = tested on: Escherichia coli; experiment: Antimicrobial activity against multisensitive Escherichia coli clinical isolate 2 after 18 to 20 hrs by microbroth dilution method; format: functional
[10] = Metabolic stability in 90% human serum assessed as parent compound remaining at 0.2 mM after 45 mins by RP-UHPLC analysis; format: ADME, cell-free; conditions: read-out: Stability
[11] = tested on: Acinetobacter baumannii; experiment: Antimicrobial activity against Acinetobacter baumannii ATCC 19606 after 18 to 20 hrs by microbroth dilution method; format: functional; conditions: ATCC 19606 = CIP 70.34 = JCM 6841
[12] = tested on: HaCaT; experiment: Cytotoxicity against human HaCaT cells at 12.5 uM after 24 hrs by MTT assay relative to control; format: cell-based
[13] = tested on: Candida albicans; experiment: Antimicrobial activity against Candida albicans clinical isolate 2 after 18 to 20 hrs by microbroth dilution method; format: functional
[14] = tested on: Staphylococcus aureus; experiment: Antimicrobial activity against methicillin resistant Staphylococcus aureus clinical isolate 2 after 18 to 20 hrs by microbroth dilution method; format: functional
[15] = tested on: Pseudomonas aeruginosa; experiment: Antimicrobial activity against Pseudomonas aeruginosa ATCC 27853 after 18 to 20 hrs by microbroth dilution method; format: functional
[16] = tested on: Klebsiella pneumoniae; experiment: Antimicrobial activity against multisensitive Klebsiella pneumoniae after 18 to 20 hrs by microbroth dilution method; format: functional
[17] = tested on: Staphylococcus aureus; experiment: Antimicrobial activity against macrolid resistant Staphylococcus aureus after 18 to 20 hrs by microbroth dilution method; format: functional
[18] = tested on: Staphylococcus aureus; experiment: Antimicrobial activity against Staphylococcus aureus Cowan I after 18 to 20 hrs by microbroth dilution method; format: functional
[19] = tested on: Pichia kudriavzevii; experiment: Antimicrobial activity against Candida krusei ATCC 6258 after 18 to 20 hrs by microbroth dilution method; format: functional
[20] = tested on: Staphylococcus aureus; experiment: Antimicrobial activity against beta-lactamase resistant Staphylococcus aureus after 18 to 20 hrs by microbroth dilution method; format: functional
[21] = tested on: HaCaT; experiment: Cytotoxicity against human HaCaT cells at 1.56 to 6.25 uM after 24 hrs by MTT assay; format: cell-based
[22] = tested on: Candida albicans; experiment: Antimicrobial activity against Candida albicans ATCC 10231 after 18 to 20 hrs by microbroth dilution method; format: functional
[23] = tested on: Staphylococcus epidermidis; experiment: Antimicrobial activity against Staphylococcus epidermidis ATCC 12228 assessed as membrane-perturbation measured every minute for 120 mins by SYTOX green fluorescence dye influx assay; format: functional, organism-based
[24] = Hemolytic activity against human erythrocytes at 12.5 uM after 40 mins relative to control; format: ADME, cell-based, Erythrocyte; conditions: read-out: Activity
[25] = tested on: Candida albicans; experiment: Antimicrobial activity against Candida albicans ATCC 10231 assessed as induction of membrane-perturbation at MIC measured every minute for 10 mins by SYTOX green fluorescence dye influx assay; format: functional, organism-based
[26] = tested on: Pseudomonas aeruginosa; experiment: Antimicrobial activity against multisensitive Pseudomonas aeruginosa after 18 to 20 hrs by microbroth dilution method; format: functional
[27] = Hemolytic activity against human erythrocytes at 6.25 uM after 40 mins relative to control; format: ADME, cell-based, Erythrocyte; conditions: read-out: Activity
[28] = tested on: Pseudomonas syringae; experiment: Antimicrobial activity against Pseudomonas syringae pv tabaci NCPPB 1918 after 18 to 20 hrs by microbroth dilution method; format: functional, Pseudomonas amygdali pv. tabaci
[29] = tested on: Priestia megaterium; experiment: Antimicrobial activity against Bacillus megaterium Bm11 after 18 to 20 hrs by microbroth dilution method; format: functional
[30] = Hemolytic activity against human erythrocytes at 3.125 uM after 40 mins relative to control; format: ADME, cell-based, Erythrocyte; conditions: read-out: Activity
[31] = Metabolic stability in 90% human serum assessed as parent compound remaining at […] after 120 mins by RP-UHPLC analysis; format: ADME, cell-free; conditions: read-out: Stability
[32] = tested on: HaCaT; experiment: Cytotoxicity against human HaCaT cells at 25 uM after 24 hrs by MTT assay relative to control; format: cell-based
[33] = tested on: Candida albicans; experiment: Antimicrobial activity against Candida albicans clinical isolate 1 after 18 to 20 hrs by microbroth dilution method; format: functional
[34] = tested on: HaCaT; experiment: Cytotoxicity against human HaCaT cells at 50 uM after 24 hrs by MTT assay relative to control; format: cell-based
[35] = tested on: HaCaT; experiment: Cytotoxicity against human HaCaT cells at 6.25 uM after 24 hrs by MTT assay relative to control; format: cell-based

SMILES	MIC [1] [µM]	MIC [2] [µM]	hemolysis at 40 min, 50 µM [3] [%]	MIC [5] [µM]	MIC [6] [µM]	hemolysis at 40 min, 25 µM [7] [%]	MIC [8] [µM]	MIC [9] [µM]	MIC [11] [µM]	Activity [12] [%]	MIC [13] [µM]	MIC [14] [µM]	MIC [15] [µM]	MIC [18] [µM]	MIC [19] [µM]	MIC [22] [µM]	MIC [28] [µM]	MIC [29] [µM]	Activity [32] [%]	Activity [34] [%]	also measured
CC[C@H](C)[C@H](NC(=O)[C@H](CCCNC(=N)N)NC(=O)[C@H](Cc1c[nH]c2ccccc12)NC(=O)[C@@H](CC(C)C)NC(=O)[C@H](Cc1ccccc1)NC(=O)[C@H](CCCCN)NC(=O)[C@H](CO)NC(=O)[C@H](Cc1ccccc1)NC(=O)[C@H](Cc1c[nH]c2ccccc12)NC(=O)[C@@H]1CCCN1C(=O)[C@@H](NC(=O)[C@@H](N)Cc1ccccc1)C(C)C)C(=O)N[C@@H](CC(C)C)C(N)=O (H-FVPWFSKF[dL]WRIL-NH2)	50 (≈ 86.9 µg/mL)	25 (≈ 43.5 µg/mL)	37	6.25 (≈ 10.9 µg/mL)	6.25 (≈ 10.9 µg/mL)	20	1.56 (≈ 2.71 µg/mL)	50 (≈ 86.9 µg/mL)	3.12 (≈ 5.43 µg/mL)	0	25 (≈ 43.5 µg/mL)	6.25 (≈ 10.9 µg/mL)	> 50	3.12 (≈ 5.43 µg/mL)	3.12 (≈ 5.43 µg/mL)	3.12 (≈ 5.43 µg/mL)	1.56 (≈ 2.71 µg/mL)	1.56 (≈ 2.71 µg/mL)	32.1	89.3	Activity [4]: Active; remaining at 0.75 h, 200 µM [10]: 80%; MIC [16]: > 50 µM; MIC [17]: 6.25 µM (≈ 10.9 µg/mL); MIC [20]: 6.25 µM (≈ 10.9 µg/mL); Activity [21]: Non-Toxic; Activity [23]: Active; hemolysis at 40 min, 12.5 µM [24]: 7%; Activity [25]: Active; MIC [26]: > 50 µM; hemolysis at 40 min, 6.25 µM [27]: 4%; hemolysis at 40 min, 3.125 µM [30]: 2%; remaining at 2 h [31]: 50%; MIC [33]: 25 µM (≈ 43.5 µg/mL)
CC[C@H](C)[C@H](NC(=O)[C@H](CCCNC(=N)N)NC(=O)CNC(=O)[C@@H](CC(C)C)NC(=O)[C@H](Cc1ccccc1)NC(=O)[C@H](CCCCN)NC(=O)[C@H](CO)NC(=O)[C@H](Cc1ccccc1)NC(=O)[C@H](Cc1c[nH]c2ccccc12)NC(=O)[C@@H]1CCCN1C(=O)[C@@H](NC(=O)[C@@H](N)Cc1ccccc1)C(C)C)C(=O)N[C@@H](CC(C)C)C(N)=O (H-FVPWFSKF[dL]GRIL-NH2)	50 (≈ 80.4 µg/mL)	12.5 (≈ 20.1 µg/mL)	21	12.5 (≈ 20.1 µg/mL)	12.5 (≈ 20.1 µg/mL)	7	6.25 (≈ 10.1 µg/mL)	50 (≈ 80.4 µg/mL)	12.5 (≈ 20.1 µg/mL)	20.63	25 (≈ 40.2 µg/mL)	12.5 (≈ 20.1 µg/mL)	50 (≈ 80.4 µg/mL)	12.5 (≈ 20.1 µg/mL)	3.12 (≈ 5.03 µg/mL)	3.12 (≈ 5.03 µg/mL)	12.5 (≈ 20.1 µg/mL)	3.12 (≈ 5.03 µg/mL)	57.52	91.58	remaining at 0.75 h, 200 µM [10]: 45%; MIC [16]: > 50 µM; MIC [17]: 12.5 µM (≈ 20.1 µg/mL); MIC [20]: 12.5 µM (≈ 20.1 µg/mL); Activity [21]: Non-Toxic; hemolysis at 40 min, 12.5 µM [24]: 6%; MIC [26]: > 50 µM; hemolysis at 40 min, 6.25 µM [27]: 3%; hemolysis at 40 min, 3.125 µM [30]: 1%; remaining at 2 h [31]: 20%; MIC [33]: 25 µM (≈ 40.2 µg/mL)
CCCC[C@@H](NC(=O)[C@@H](CC(C)C)NC(=O)[C@H](Cc1ccccc1)NC(=O)[C@H](CCCCN)NC(=O)[C@H](CO)NC(=O)[C@H](Cc1ccccc1)NC(=O)[C@H](Cc1c[nH]c2ccccc12)NC(=O)[C@@H]1CCCN1C(=O)[C@@H](NC(=O)[C@@H](N)Cc1ccccc1)C(C)C)C(=O)N[C@@H](CCCNC(=N)N)C(=O)NC(C(=O)N[C@@H](CC(C)C)C(N)=O)[C@@H](C)CC (single isomer, unassigned)		25 (≈ 41.6 µg/mL)					3.12 (≈ 5.2 µg/mL)		6.25 (≈ 10.4 µg/mL)	39.96			50 (≈ 83.3 µg/mL)	3.12 (≈ 5.2 µg/mL)	1.56 (≈ 2.6 µg/mL)	3.12 (≈ 5.2 µg/mL)	3.12 (≈ 5.2 µg/mL)	1.56 (≈ 2.6 µg/mL)	72.81	96.64	Activity [35]: 15%
CC[C@H](C)C(NC(=O)[C@H](CCCNC(=N)N)NC(=O)[C@@H](CCCCN)NC(=O)[C@@H](CC(C)C)NC(=O)[C@H](Cc1ccccc1)NC(=O)[C@H](CCCCN)NC(=O)[C@H](CO)NC(=O)[C@H](Cc1ccccc1)NC(=O)[C@H](Cc1c[nH]c2ccccc12)NC(=O)[C@@H]1CCCN1C(=O)[C@@H](NC(=O)[C@@H](N)Cc1ccccc1)C(C)C)C(=O)N[C@@H](CC(C)C)C(N)=O (single isomer, unassigned)	25 (≈ 42 µg/mL)	12.5 (≈ 21 µg/mL)	7	12.5 (≈ 21 µg/mL)	25 (≈ 42 µg/mL)	5	3.12 (≈ 5.25 µg/mL)	25 (≈ 42 µg/mL)	6.25 (≈ 10.5 µg/mL)	0	12.5 (≈ 21 µg/mL)	12.5 (≈ 21 µg/mL)	12.5 (≈ 21 µg/mL)	12.5 (≈ 21 µg/mL)	1.56 (≈ 2.62 µg/mL)	1.56 (≈ 2.62 µg/mL)	12.5 (≈ 21 µg/mL)	3.12 (≈ 5.25 µg/mL)	28.22	87.9	Activity [4]: Active; MIC [16]: 50 µM (≈ 84 µg/mL); MIC [17]: 25 µM (≈ 42 µg/mL); MIC [20]: 25 µM (≈ 42 µg/mL); Activity [21]: Non-Toxic; Activity [23]: Active; hemolysis at 40 min, 12.5 µM [24]: 5%; Activity [25]: Active; MIC [26]: > 50 µM; hemolysis at 40 min, 6.25 µM [27]: 1%; hemolysis at 40 min, 3.125 µM [30]: 0%; remaining at 2 h [31]: 40%; MIC [33]: 12.5 µM (≈ 21 µg/mL)
CC[C@H](C)[C@H](NC(=O)[C@H](CCCNC(=N)N)NC(=O)[C@@H](Cc1c[nH]c2ccccc12)NC(=O)[C@@H](CC(C)C)NC(=O)[C@H](Cc1ccccc1)NC(=O)[C@H](CCCCN)NC(=O)[C@H](CO)NC(=O)[C@H](Cc1ccccc1)NC(=O)[C@H](Cc1c[nH]c2ccccc12)NC(=O)[C@@H]1CCCN1C(=O)[C@@H](NC(=O)[C@@H](N)Cc1ccccc1)C(C)C)C(=O)N[C@@H](CC(C)C)C(N)=O (H-FVPWFSKF[dL][dW]RIL-NH2)		25 (≈ 43.5 µg/mL)					1.56 (≈ 2.71 µg/mL)		3.12 (≈ 5.43 µg/mL)	19.21			50 (≈ 86.9 µg/mL)	3.12 (≈ 5.43 µg/mL)	3.12 (≈ 5.43 µg/mL)	3.12 (≈ 5.43 µg/mL)	3.12 (≈ 5.43 µg/mL)	3.12 (≈ 5.43 µg/mL)	35.34	96.77	Activity [35]: 15%
